Experimental data taken from patent US20190062277A1, “FARNESOID X RECEPTOR AGONISTS AND USES THEREOF” (Metacrine, Inc., priority 2015, published 2019).

Columns and labels:
FXR [1] = target: T1, FXR (Homo sapiens, UniProt Q96RI1); assay: In Vitro FXR Assay (PGL3), luciferase reporter in transfected CV-1 cells; assay type: cell-based; set-up: plasmids XPD90Gal pCMXhFXRfl, pCMXhRXRfl+PGL3-ECRE*6-luc+CMX-YFP; expressed in transfected cells; host or cells: CV-1 cells; conditions: CV-1 cells transfected with hFXR, hRXR, PGL3-ECRE*6-luc; 18 hrs incubation; luminescence
T1 sequence (Q96RI1 1-486): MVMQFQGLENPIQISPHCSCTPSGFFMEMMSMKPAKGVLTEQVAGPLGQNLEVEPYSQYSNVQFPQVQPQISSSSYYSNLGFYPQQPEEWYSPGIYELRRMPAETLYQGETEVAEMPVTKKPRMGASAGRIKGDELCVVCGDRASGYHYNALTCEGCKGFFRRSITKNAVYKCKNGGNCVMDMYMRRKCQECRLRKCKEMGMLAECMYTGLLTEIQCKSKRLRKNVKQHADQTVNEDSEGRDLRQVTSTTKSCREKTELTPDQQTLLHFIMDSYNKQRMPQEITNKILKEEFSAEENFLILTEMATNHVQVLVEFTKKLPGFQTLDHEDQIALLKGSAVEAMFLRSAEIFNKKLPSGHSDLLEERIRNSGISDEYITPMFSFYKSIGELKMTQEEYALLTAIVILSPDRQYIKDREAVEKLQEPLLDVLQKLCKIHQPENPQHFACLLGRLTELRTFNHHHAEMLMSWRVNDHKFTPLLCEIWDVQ
T1 sequence (P19793 1-462 partner): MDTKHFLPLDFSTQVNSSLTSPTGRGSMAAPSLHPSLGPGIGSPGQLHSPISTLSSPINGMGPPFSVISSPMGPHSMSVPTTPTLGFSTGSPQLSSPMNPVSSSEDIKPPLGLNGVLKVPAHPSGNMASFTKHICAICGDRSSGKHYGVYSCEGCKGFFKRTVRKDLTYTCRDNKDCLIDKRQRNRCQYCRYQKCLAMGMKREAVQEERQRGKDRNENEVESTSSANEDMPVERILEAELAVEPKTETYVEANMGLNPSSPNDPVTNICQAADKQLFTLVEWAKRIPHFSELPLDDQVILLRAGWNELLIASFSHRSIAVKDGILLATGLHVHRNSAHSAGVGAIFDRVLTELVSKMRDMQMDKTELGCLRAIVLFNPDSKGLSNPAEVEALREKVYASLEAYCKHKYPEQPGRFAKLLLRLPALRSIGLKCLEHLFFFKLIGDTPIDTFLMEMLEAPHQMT
Protocol: Example B-1: In Vitro FXR Assay (PGL3)
CV-1 cells were seeded at a density of 2,000,000 cells in a T175 flask with DMEM+10% charcoal double-stripped FBS and incubated at 37° C. in a 5% CO2 for 18 h (0/N).
After 18 h of incubation, the medium in the T175 flask was changed with fresh DMEM+10% charcoal super-stripped serum.
To prepare the transfection reaction mixture, the transfection reagent (X-tremeGENE HP from Roche, Cat #06 366 236 001) was added in to a 1.5 mL microcentrifuge tube labelled “A” at a ratio of 1:3 (DNA in μg: transfection reagent in μL). OptiMEM medium (Life Technologies, Cat #31985-062) was added accordingly to provide a total volume of 1 mL. The transfection reaction mixture was then briefly vortexed and incubated at room temperature for 5 minutes.
In a separate 1.5 mL microcentrifuge tube labelled “B”, 100 μL OptiMEM and plasmids XPD90Gal pCMXhFXRfl, pCMXhRXRfl+PGL3-ECRE*6-luc+CMX-YFP in the ratio 2 μg: 2 μg:18 μg:3 μg were added. This microcentrifuge tube “B” was then briefly vortexed and incubated at room temperature for 5 minutes.
The total volume in tube labelled “A” was then transferred in to tube labelled “B.” The mixture was then briefly vortexed and the transfection:DNA complex was then incubated for about 15-20 minutes at room temperature.
Following incubation, the transfection reagent/DNA mixture complex was then added to cells in the T175 flask and the cells were incubated at […] (0/N) at 37° C. in 5% CO2.
In a 96 well plate, a half logarithmic serial dilution was prepared. OptiMEM was used as the diluent. Using any of one of the compounds described herein, a compound stock solution of 10 mM was prepared. An initial 1:100 dilution was made into the first well for a final concentration of 100 μM. The final concentrations in the 96-well plate was prepared by using a multichannel pipette to transfer 5 μL of the diluted compound to 384-well plate in quadruplicate.
Cells in T175 flask were trypsinized and cells were resuspending in 40 mL phenol red free DMEM+10% charcoal super-stripped FBS. Typically, one T175 flask was sufficient to seed two 384 well plates. CV-1 cells were seeded at 45 μL cell suspension/well using a multi-channel pipet or a 384 multidrop dispenser. The cells were then incubated for 18 hrs, overnight.
After removing the plates from the incubator, the medium was flicked out of plate and 384 well plate was turned upside down onto paper towel. The remaining medium was gently tapped out. 15 μL lysis buffer was then added to each well using a multichannel pipet or a 384 well multi-drop dispenser. After incubation for 10 minutes at room temperature on shaker, 30 μL Luciferase buffer was added to each well. Luminescence counts were taken immediately using the Perkin Elmer Envision.
The ability of the compounds disclosed herein to […] FXR activity was quantified and the respective EC50 value was determined. Fex=fexaramine.

FXR [2] = target: T1, FXR; assay: In Vitro FXR Assay (TK), luciferase reporter in transfected CV-1 cells; assay type: cell-based; set-up: expressed in transfected cells; host or cells: CV-1 cells; conditions: CV-1 cells transfected with hFXR, hRXR, TK-ECRE-luc; 18 hrs incubation; luminescence; maximum efficacy <25% of Fexaramine control also classified '+'
Protocol: Example B-2: In Vitro FXR Assay (TK)
CV-1 cells were seeded at a density of 2,000,000 cells in a T175 flask with DMEM+10% charcoal double-stripped FBS and incubated at 37° C. in 5% CO2 for 18 h (0/N).
After 18 h of incubation, the medium in the T175 flask was changed with fresh DMEM+10% charcoal super-stripped serum. In a polypropylene tube, 2500 μL OptiMEM (Life Technologies, Cat #31985-062) was combined with expression plasmids for hFXR, hRXR, TK-ECRE-luc and pCMX-YFP. The tube was then briefly vortexed and incubated at room temperature for 5 minutes. Transfection reagent (X-tremeGENE HP from Roche, Cat #06 366 236 001) was added to the OptiMEM/plasmid mixture vortexed and incubated at room temperature for 20 minutes. Following incubation, the transfection reagent/DNA mixture complex was added to cells in the T175 flask and the cells were incubated at 37° C. in 5% CO2 for 18 h (O/N).
Compounds were serially diluted in DMSO and added to transfected CV-1 cells. The cells were then incubated for 18 hrs. The next day cells were lysed and examined for luminescence.

COC(=O)/C=C/c1cccc(N(CC2CCN(c3ccc(N(C)C)cc3)CC2)C(=O)C2CCCCC2)c1 [Compound 2, (E)-Methyl 3-(3-(N-((1-(4-(dimethylamino)phenyl)piperidin-4-yl)methyl)cyclohexanecarboxamido)phenyl)acrylate]
Cmpd/Fex (ratio of the EC50 for the test compound relative to the EC50 of the Fexaramine control) (FXR [1]): +++ (‘+++’ means Cmpd/Fex <10)
EC50 (FXR [2]): ≤ 1000 nM
